Assay results taken from patent US20250346588A1, “IMIDAZOPYRIDINE AND OXAZOLOPYRIDINE DERIVATIVES AND ANALOGS THEREOF, METHODS OF PREPARATION THEREOF, METHODS OF HIF-1/2A PATHWAY INHIBITION, AND INDUCTION OF FERROPTOSIS” (KUDA THERAPEUTICS, INC., priority 2022, published 2025).

Test system: HIF-2α transcriptional activity
Assay: Hypoxia-responsive element-driven luciferase (HRE-Luc) screen
Format: cell-based, human
Settings: Homo sapiens, 786-0, 24 h, 786-0 ccRCC cells stably expressing HRE-Luc; 24 h treatment; range of IC50 values
Experimental: Screens for inhibitory activity of compounds described herein were performed using 786-0 ccRCC cells that stably express HRE-Luc: 5 copies of the hypoxia-responsive element (HRE) fused to the pGL3 luciferase reporter (Promega Corp, Madison WI). 786-0 cells are pVHL deficient and thus constitutively express HIF-2α independently of cellular oxygen tension. Since 786-0 cells lack HIF-1α, HRE-driven luciferase activity is primarily HIF-2α driven, and has been previously validated. Cells were maintained at log phase growth in […] (DMEM) with 10% FBS in a humidified incubator at 37° C. with 5% CO2. For screening assays, cells were seeded at a density of 4,000 cells in 50 μl of complete media/well in quadruplicate wells/point in a 96-well plate. After 24 h, 50 μl of a 2× concentration of test compound was added to each well. Compounds were diluted from a 5-10 mM stock in DMSO and final concentrations of DMSO in each well in controls and treated wells were kept constant at ≤0.6% DMSO. After 24 h treatment, luciferase activity was measured using the Steady-Glo Luciferase assay system (Promega Corp) according to the manufacturer's protocol. Cell viability was measured in quadruplicate parallel wells using resazurin as recommended by the manufacturer (R&D systems, Minneapolis, MN). Data for luciferase and resazurin were normalized to DMSO treated controls (defining 100%) and wells containing assay reagent but no cells (defining 0%) and graphed using the log inhibitor versus normalized response option in Graphpad Prism 9.3.1 software. Representative data determined using Steady-Glo luciferase and resazurin are shown in FIGS. 1A and 1B respectively, with error bars showing SD. Filled diamonds, empty squares and empty triangles indicate treatment with 3, 8 and 22 respectively with results for HRE-Luc shown in FIG. 1A.

Row | Compound | IC50 [µM]
1 | COc1nccc2[nH]c(Nc3nnc([C@H]4CC[C@H](OC)CC4)o3)nc12 [Compound 63, N-(4-methoxy-1H-imidazo[4,5-c]pyridin-2-yl)-5-((1r,4r)-4-methoxycyclohexyl)-1,3,4-oxadiazol-2-amine] | < 10
2 | COc1ccc(-c2nnc(Nc3nc4c(OC)nc(C)cc4[nH]3)o2)cc1OC [Compound 55, 5-(3,4-dimethoxyphenyl)-N-(4-methoxy-6-methyl-1H-imidazo[4,5-c]pyridin-2-yl)-1,3,4-oxadiazol-2-amine] | < 10
3 | COc1nccc2[nH]c(Nc3nnc(-c4ccc(OC(C)C)cc4)o3)nc12 [Compound 42, 5-(4-Isopropoxyphenyl)-N-(4-methoxy-1H-imidazo[4,5-c]pyridin-2-yl)-1,3,4-oxadiazol-2-amine] | 10 to 50
4 | COc1cccc2nc(Nc3nnc(C4C[C@H]5CC[C@@H]4C5)o3)[nH]c12 (stereo partly drawn) [Compound 96, 5-((1R,4S)-bicyclo[2.2.1]heptan-2-yl)-N-(7-methoxy-1H-benzo[d]imidazol-2-yl)-1,3,4-oxadiazol-2-amine] | 10 to 50
5 | Fc1ccc(-c2nnc(Nc3nc4cnc(C(F)(F)F)cc4[nH]3)o2)cc1 [Compound 6, 5-(4-Fluorophenyl)-N-(6-(trifluoromethyl)-1H-imidazo[4,5-c]pyridin-2-yl)-1,3,4-oxadiazol-2-amine] | 10 to 50
6 | Fc1ccc(-c2nnc(Nc3nc4ccnc(N5CCOCC5)c4[nH]3)o2)cc1 [Compound 17, 5-(4-Fluorophenyl)-N-(4-morpholino-3H-imidazo[4,5-c]pyridin-2-yl)-1,3,4-oxadiazol-2-amine] | 10 to 50
7 | COc1ccc2[nH]c(Nc3nnc(-c4ccc(F)cc4)o3)nc2n1 [Compound 4, 5-(4-Fluorophenyl)-N-(5-methoxy-1H-imidazo[4,5-b]pyridin-2-yl)-1,3,4-oxadiazol-2-amine] | < 10
8 | COc1nccc2[nH]c(Nc3nnc(-c4ccc(C#N)cc4)o3)nc12 [Compound 32, 4-(5-((4-Methoxy-1H-imidazo[4,5-c]pyridin-2-yl)amino)-1,3,4-oxadiazol-2-yl) benzonitrile] | > 10
9 | CCOc1ccc(-c2nnc(Nc3nc4c(OC)cccc4[nH]3)o2)cc1OCC [Compound 88, 5-(3,4-diethoxyphenyl)-N-(4-methoxy-1H-benzo[d]imidazol-2-yl)-1,3,4-oxadiazol-2-amine] | > 100

Continued, values first:

Row | IC50 [µM] | Compound
10 | < 10 | COc1ccc(-c2nnc(Nc3nc4ncccc4o3)o2)cc1 [Compound 30, N-(5-(4-Methoxyphenyl)-1,3,4-oxadiazol-2-yl)oxazolo[4,5-b]pyridin-2-amine]
11 | 50 to 100 | COc1cccc2[nH]c(Nc3nnc(N4CCN(C)CC4)o3)nc12 [Compound 73, N-(4-methoxy-1H-benzo[d]imidazol-2-yl)-5-(4-methylpiperazin-1-yl)-1,3,4-oxadiazol-2-amine]
12 | 50 to 100 | COc1ccc2nc(Nc3nnc(-c4ccc(F)cc4)o3)sc2n1 [Compound 9, 5-(4-Fluorophenyl)-N-(5-methoxythiazolo[5,4-b]pyridin-2-yl)-1,3,4-oxadiazol-2-amine]
13 | > 100 | COc1ccc(-c2nnc(Nc3nc4c(OC)cccc4[nH]3)o2)c(C)c1 [Compound 83, N-(4-methoxy-1H-benzo[d]imidazol-2-yl)-5-(4-methoxy-2-methylphenyl)-1,3,4-oxadiazol-2-amine]
14 | > 10 | Fc1ccc(-c2nnc(Nc3nc4ncccc4o3)o2)cc1 [Compound 8, N-(5-(4-Fluorophenyl)-1,3,4-oxadiazol-2-yl)oxazolo[4,5-b]pyridin-2-amine]
15 | > 100 | COc1ccc(-c2csc(Nc3nc4c(OC)nc(C)cc4[nH]3)n2)cc1C#N [Compound 53, 2-Methoxy-5-(2-((4-methoxy-6-methyl-1H-imidazo[4,5-c]pyridin-2-yl)amino)thiazol-4-yl)benzonitrile]
16 | 10 to 50 | Fc1ccc(-c2nnc(Nc3nc4cnc(N5CCOCC5)cc4[nH]3)o2)cc1 [Compound 10, 5-(4-Fluorophenyl)-N-(6-morpholino-1H-imidazo[4,5-c]pyridin-2-yl)-1,3,4-oxadiazol-2-amine]
